Positions of bridges follow the written chain, without caps; N, C: chain ends. Non-standard residues stand in square brackets, D forms with d. Residues, ends and D or L forms follow the SMILES beside them. *: point of attachment. Bip = N[C@@H](Cc1ccc(-c2ccccc2)cc1)C(=O)O; NMeF = CN[C@@H](Cc1ccccc1)C(=O)O; NMeI = CC[C@H](C)[C@H](NC)C(=O)O; NMeL = CN[C@@H](CC(C)C)C(=O)O; NMeV = CN[C@H](C(=O)O)C(C)C; NMeA = CN[C@@H](C)C(=O)O; Piperidide = C1CCN(*)CC1; Sar = CNCC(=O)O; tBu = CC(C)(C)*
Legend:
[1] = Stability of aminoacylated pdCpA in buffers and on storage (LC-MS); assay type: physicochemical; conditions: for % by LC-MS during StBu deprotection: 250 μM Compound 2n-A, 50 mM Tris-HCl pH 7, 10 mM DTT
Protocol: The side chain StBu of pdCpA-Cys was deprotected using the precursor Compound 2n-A, and the following experiment was carried out to examine stability of the deprotected Compound 2e-A. The side chain was deprotected at room temperature under the conditions of 250 μM of Compound 2n-A, 50 mM Tris-HCl buffer, pH 7, and 10 mM DTT, and the time course of the deprotection was observed by LC-MS (SQD). The intended Compound 2e-A was not observed, and pdCpA resulting from hydrolysis of pdCpA-Cys was observed. After 5 minutes, Compound 2n-A was 51%, Compound 2e-A was 0%, and pdCpA was 49%. After 2 hours, deprotection was completed and Compound 2n-A was 0%, but Compound 2e-A was 0% and all hydrolized so that pdCpA was 100% (FIG. 13).
Stability of Compound 2n-A with the SH group of Cys protected was evaluated. Storage samples were prepared under five conditions as shown in the following Table 2 were prepared, respectively, and analyzed by LC-MS.
Stability of Compound 2n-B with the SH group of MeCys protected was also evaluated. Storage samples were prepared under four conditions as shown in the following Table 3 were prepared and analyzed by LC-MS.

[2] = Serum stability test in mouse serum; assay type: in vitro ADME; conditions: both sexes, pH 7.4, two hours, read-out: Serum stability t1/2 (Mouse)
Protocol: (§1) The obtained compound was metabolically reacted at a concentration of 2 uM with mouse serum (male/female mixed, Valley Biomedical, USA) (adjusted to pH 7.4 with 33.5 mM HEPES buffer) for two hours. Deproteinization treatment with acetonitrile was provided over time, the amount of the remaining unchanged compound was analyzed using LC/MS, and the metabolic half-life (t1/2) was calculated. A microsome solution prepared at 0.5 mg protein/mL from mouse hepatic microsome and small intestinal microsome (male, XENOTECH, USA) using 100 mM phosphate buffer (pH 7.4) was metabolically reacted with the compound at a concentration of 1 uM for 30 minutes in the presence or absence of NADPH. Deproteinization treatment with acetonitrile was provided over time, the amount of the remaining unchanged compound was analyzed using LC/MS, and the hepatic-intrinsic clearance (CLh, int) and the small intestinal-intrinsic clearance (CLg, int) were calculated (Table 7). Such peptides were sufficiently slowly metabolized by hydrolysis with peptidases or the like in mouse sera and microsomes, contrary to peptides composed of natural amino acids having low lipophilicity.

[3] = Metabolic stability in mouse hepatic microsome; assay type: in vitro ADME; conditions: 0.5 mg protein/mL, 1 uM, 30 minutes; for Hepatic Microsome CLh, int (Mouse) In the absence of NADPH: without NADPH; for microsomal CLint at 1 uM: male, mouse, liver microsomes, pH 7.4, with NADPH, read-out: Hepatic Microsome CLh, int (Mouse) In the presence of NADPH
Protocol: as §1
Metabolic stability tests were carried out in the same manner as shown in 2-1.

[4] = Metabolic stability in human hepatic microsome; assay type: in vitro ADME; conditions: human, microsomes, pH 7.4, CL NADPH(+)
[5] = PAMPA (parallel artificial membrane permeability assay); assay type: in vitro ADME; conditions: PAMPA, pH 6.5
Method in brief: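 Artificial membrane was 10% (w/v) egg lecithin plus 0.5% (w/v) cholesterol in dodecane on a PVDF filter. A 10 mM DMSO stock was added at 0.5% (v/v) to donor buffer (50 mM MOPSO, pH 6.5, 5.0% glycocholic acid). After 18 h at 37 °C, LC/MS or LC/UV gave donor and acceptor levels for Pe.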

in vivo = conditions: male, C57BL/6J, mouse, 20 mg/kg
[6] = room temperature, after 5 minutes
[7] = room temperature, after 2 hours
[8] = In AcONa buffer, 1 mM, pH 5, room temperature, 1 hour
[9] = In DMSO, 5 mM, pH 4, 0° C., 2.5 days
[10] = In HEPES buffer, 1 mM, pH 7, room temperature, 1 hour
[11] = Stored as solid, room temperature, 16 days
[12] = pdCpA-MeCys(StBu): In AcONa buffer, 1 mM, pH 5, room temperature, 5 hours
[13] = pdCpA-MeCys(StBu): In DMSO, 5 mM, pH 4, 0° C., 1 day
[14] = pdCpA-MeCys(StBu): In HEPES buffer, 1 mM, pH 7, room temperature, 1 hour
[15] = pdCpA-MeCys(StBu): In Tris buffer, 1 mM, pH 7, room temperature, 1 hour

SMILES	half-life at 2 uM [2] [h]	Hepatic Microsome CLh, int (Mouse) In the absence of NADPH [3] [ul/min/mg Protein]	microsomal CLint at 1 uM [3] [µL/min/mg]	microsomal CLint at 1 uM [4] [µL/min/mg]	Papp at 18 hours, 50 µM [5] [×10⁻⁶ cm/s]	AUC (in vivo; iv) [ng·h/mL]	C0 (in vivo; iv) [µg/mL]	Vd (in vivo; iv) [L/kg]	clearance (in vivo; iv) [mL/min/kg]	half-life (in vivo; iv) [h]	AUC (in vivo; po) [ng·h/mL]	CL/F (in vivo; po) [mL/min/kg]	Cmax (in vivo; po) [µg/mL]	Tmax (in vivo; po) [h]	bioavailability (in vivo; po) [%]	half-life (in vivo; po) [h]	other results
CC(C)(C)SSC[C@H](N)C(=O)O[C@H]1[C@@H](O)[C@H](n2cnc3c(N)ncnc32)O[C@@H]1COP(=O)(O)O[C@H]1C[C@H](n2ccc(N)nc2=O)O[C@@H]1COP(=O)(O)O [Compound 2n-A, (2R)-(2R,3S,4R,5R)-2-((((((2R,3S,5R)-5-(4-amino-2-oxopyrimidin-1(2H)-yl)-2-((phosphonooxy)methyl)tetrahydrofuran-3-yl)oxy)(hydroxy)phosphoryl)oxy)methyl)-5-(6-amino-9H-purin-9-yl)-4-hydroxytetrahydrofuran-3-yl 2-amino-3-(tert-butyldisulfanyl)propanoate]																	% by LC-MS during StBu deprotection [1, 6]: 51%; % by LC-MS during StBu deprotection [1, 7]: 0%; % remaining by LC-MS [1, 8]: 70%; % remaining by LC-MS [1, 9]: 58%; % remaining by LC-MS [1, 10]: 30%; % remaining by LC-MS [1, 11]: 64%
CC[C@H](C)[C@H]1C(=O)N[C@@H](Cc2ccc(-c3ccccc3)cc2)C(=O)N[C@H](C(=O)N2CCCCC2)CSCC(=O)N(C)[C@@H](CC(C)C)C(=O)N[C@@H]([C@@H](C)O)C(=O)N(C)CC(=O)N(C)[C@@H](CC(C)C)C(=O)N[C@@H](CO)C(=O)N1C [Compound P-104, Ac*-MeLeu-Thr-MeGly-MeLeu-Ser-MeIle-Bip-Cys*-piperidine] ({CH2CO}-[NMeL]T[Sar][NMeL]S[NMeI][Bip]C-Piperidide; thioether N-8)	> 60	6.9	106														
CC(C)C[C@H]1C(=O)N[C@H](C(=O)N2CCCCC2)CSCC(=O)N(C)[C@@H](Cc2ccccc2)C(=O)N(C)[C@@H](C)C(=O)N[C@@H](Cc2ccccc2)C(=O)N(C)[C@@H](CC(C)C)C(=O)N[C@@H]([C@@H](C)O)C(=O)N(C)CC(=O)N1C [Compound P-105, Ac*-MePhe-MeAla-Phe-MeLeu-Thr-MeGly-MeLeu-Cys*-piperidine] ({CH2CO}-[NMeF][NMeA]F[NMeL]T[Sar][NMeL]C-Piperidide; thioether N-8)	> 60	5.1	278														
CC(C)C[C@H]1C(=O)N[C@@H](COC(C)(C)C)C(=O)N[C@H](C(=O)N2CCCCC2)CSCC(=O)N(C)[C@@H](C)C(=O)N[C@@H](Cc2ccccc2)C(=O)N(C)[C@@H](CC(C)C)C(=O)N[C@@H]([C@@H](C)O)C(=O)N(C)CC(=O)N1C [Compound P-106, Ac*-MeAla-Phe-MeLeu-Thr-MeGly-MeLeu-Ser(tBu)-Cys*-piperidine] ({CH2CO}-[NMeA]F[NMeL]T[Sar][NMeL]S(tBu)C-Piperidide; thioether N-8)	> 60	1.9	151														
CC[C@H](C)[C@H]1C(=O)N[C@@H](COC(C)(C)C)C(=O)N(C)[C@@H](Cc2ccccc2)C(=O)N(C)[C@@H](C(C)C)C(=O)N[C@H](C(=O)N2CCCCC2)CC(=O)N(C)[C@@H](C)C(=O)N(C)[C@@H](Cc2ccccc2)C(=O)N[C@@H](CC(C)C)C(=O)N(C)[C@@H](CC(C)C)C(=O)N[C@@H]([C@@H](C)O)C(=O)N(C)CC(=O)N1C [DP-47] ([NMeA][NMeF]L[NMeL]T[Sar][NMeI]S(tBu)[NMeF][NMeV]D-Piperidide; lactam N-11)				37	50	202000	107	0.381	1.66	2.68	38000	8.86	4.49	2.67	18.8	3.88	
CC(C)C[C@H]1C(=O)N2CCC[C@H]2C(=O)N(C)[C@@H](CC(C)C)C(=O)N[C@@H](C)C(=O)N(C)[C@@H](C(C)C)C(=O)N[C@H](C(=O)N2CCCCC2)CC(=O)N(C)[C@@H](C)C(=O)N[C@@H]([C@@H](C)O)C(=O)N(C)CC(=O)N(C)[C@@H](Cc2ccccc2)C(=O)N(C)[C@@H](Cc2ccccc2)C(=O)N1C [DP-67] ([NMeA]T[Sar][NMeF][NMeF][NMeL]P[NMeL]A[NMeV]D-Piperidide; lactam N-11)				15	23	70700	102	0.431	4.74	3.25	10900	37.9	2.31	3.5	15.5	4.36	
CC[C@H](C)[C@H]1C(=O)N[C@@H]([C@@H](C)O)C(=O)N(C)CC(=O)N(C)[C@@H](CC(C)C)C(=O)N[C@H](C(=O)N2CCCCC2)CC(=O)N(C)[C@@H](C)C(=O)N[C@@H](CC(C)C)C(=O)N(C)[C@@H](CC(C)C)C(=O)N(C)[C@@H](Cc2ccccc2)C(=O)N[C@@H](C)C(=O)N(C)[C@@H](Cc2ccccc2)C(=O)N1C [DP-101] ([NMeA]L[NMeL][NMeF]A[NMeF][NMeI]T[Sar][NMeL]D-Piperidide; lactam N-11)				101	56	83300	112	0.455	4.01	1.91	12700	26.2	2.32	1.83	15.2	2.27	
Nc1ccn([C@H]2C[C@H](OP(=O)(O)OC[C@H]3O[C@@H](n4cnc5c(N)ncnc54)[C@H](O)[C@@H]3O)[C@@H](COP(=O)(O)O)O2)c(=O)n1 [pdCpA, ((2R,3S,5R)-5-(4-amino-2-oxopyrimidin-1(2H)-yl)-3-(((((2R,3S,4R,5R)-5-(6-amino-9H-purin-9-yl)-3,4-dihydroxytetrahydrofuran-2-yl)methoxy)(hydroxy)phosphoryl)oxy)tetrahydrofuran-2-yl)methyl dihydrogenphosphate, reference compound]																	% by LC-MS during StBu deprotection [1, 6]: 49%; % by LC-MS during StBu deprotection [1, 7]: 100%; % remaining by LC-MS [1, 8]: 30%; % remaining by LC-MS [1, 9]: 42%; % remaining by LC-MS [1, 10]: 70%; % remaining by LC-MS [1, 11]: 36%; % remaining by LC-MS [1, 12]: 0%; % remaining by LC-MS [1, 13]: 0%; % remaining by LC-MS [1, 14]: 51%; % remaining by LC-MS [1, 15]: 65%
CN[C@@H](CSSC(C)(C)C)C(=O)O[C@H]1[C@@H](O)[C@H](n2cnc3c(N)ncnc32)O[C@@H]1COP(=O)(O)O[C@H]1C[C@H](n2ccc(N)nc2=O)O[C@@H]1COP(=O)(O)O [pdCpA-MeCys(StBu), (2R)-(2R,3S,4R,5R)-2-((((((2R,3S,5R)-5-(4-amino-2-oxopyrimidin-1(2H)-yl)-2-((phosphonooxy)methyl)tetrahydrofuran-3-yl)oxy)(hydroxy)phosphoryl)oxy)methyl)-5-(6-amino-9H-purin-9-yl)-4-hydroxytetrahydrofuran-3-yl 3-(tert-butyldisulfanyl)-2-(methylamino)propanoate]																	% remaining by LC-MS [1, 12]: 100%; % remaining by LC-MS [1, 13]: 100%; % remaining by LC-MS [1, 14]: 49%; % remaining by LC-MS [1, 15]: 35%
